For this assay, the system named is P. falciparum 3D7 growth, pLDH absorbance. In words: P. falciparum 3D7 growth inhibition, dose response, strain 3D7 (AID 2305).

Turning to `CCCCCOc1c(CCC)cc(Cc2cnc(N)nc2N)cc1CCC`, the IC50 came out at 900 nM.

In turn, `CC1CCN(CCNC(=O)c2ccc3c(=O)n(Cc4ccc(Cl)cc4)c(=S)[nH]c3c2)CC1` displayed an IC50 of 700 nM.

On to `CC(C)(CNCc1ccc(C(F)(F)F)cc1)c1nc(-c2ccc(Cl)c(O)c2)c(-c2ccnc(N)n2)[nH]1`, for which the concentration for half-maximal inhibition (IC50) was 150 nM.

With `CC1CCN(Cc2c(O)ccc3c(CN4CCC(C)CC4)c(O)ccc23)CC1`, the IC50 turned out to be 130 nM.

Regarding `O=C(Nc1ccc(OC2CCN(Cc3ccc(F)cc3)C2)c(Cl)c1)c1ccsc1` (centres undefined), the IC50 came out at 540 nM. Compared with the last compound, the IC50 is about 4.2-fold higher.

The compound `CC[C@H](C)CNC(=O)c1ccc(-c2cccc(CN3CCC(N4CCCC4)CC3)c2)nc1` had an IC50 of 790 nM. The IC50 values of the last two compounds are within 1.5-fold of each other.

Compound `COc1ccc(CNC2Cc3ccccc3C2)cc1-c1ccc(OC)c(S(=O)(=O)NCCN2CCCC2)c1` had a half-maximal inhibitory concentration (IC50) of 770 nM.

The compound `COc1ccc(F)cc1-c1ccc(C(=O)N2CCCN(c3ccc(C(F)(F)F)cn3)CC2)cc1` yielded an IC50 of 160 nM. Compared with the last compound, the IC50 is about 4.8-fold lower.

`O=C(Nc1ccccc1Br)c1cn(-c2ccccc2)nc1-c1cccc([N+](=O)[O-])c1`: the IC50 was 1320 nM. This IC50 is about 8.2-fold higher than that of the compound before.

`CNc1cc(-c2ccc3ccnc(N)c3c2)nc(N)n1` showed an IC50 of 120 nM.

Regarding `COc1ccc2nccc([C@@H](O)CN3CCC(NCc4cc5cccc(OC)c5o4)CC3)c2c1`, the half-inhibitory concentration (IC50) is 790 nM.

Compound `CC(C)CCNc1nc2ccccc2nc1Nc1cccc(C(F)(F)F)c1` showed an IC50 of 910 nM.

On to `Cc1noc(-c2ccc(O)cc2O)c1-c1ccc2c(c1)OCCCO2`, for which the half-inhibitory concentration (IC50) turned out to be 890 nM.

`CCC(ON1C(N)=NC(N)=NC1(C)C)c1ccccc1` (centres undefined) displayed an IC50 of 30 nM.

As to `Cc1ccc2[nH]c(-c3ccccc3N)cc2c1`, the half-inhibitory concentration (IC50) was determined as 920 nM.

For the compound `O=C(/C=C/c1ccc(Cl)c(Cl)c1)NCCCCCN1CCC(NC(=O)Nc2cc(Cl)ccc2Cl)CC1`, the concentration for half-maximal inhibition (IC50) was determined as 430 nM.

As to `COc1cccc(-c2ccc(C(=O)NC3CCN(Cc4ccc(N(C)C)cc4)CC3)s2)c1`, the half-maximal inhibitory concentration (IC50) turned out to be 1390 nM. Against the preceding compound, the IC50 is about 3.2-fold higher.

In the case of `CCC(CN1C(=O)C(c2ccccc2)(c2ccccc2)N=C1N)c1ccccc1` (centres undefined), the IC50 is 140 nM.

`CN(C(=O)c1nn(-c2ccccn2)c2nccc(-c3cccs3)c12)C1CCCCC1` registered a half-maximal inhibitory concentration (IC50) of 1240 nM.

For `Cc1ccc(N2C(=O)C3C(C2=O)[C@]2(c4ccccc4)C(=O)[C@@]3(c3ccccc3)C(c3ccccc3)=C2c2ccccc2)c(C)c1` (some centres undefined), the IC50 is 530 nM.

`O=C(/C=C/c1ccc(Cl)c(Cl)c1)N1CCN(C(=O)Nc2ccc(C(F)(F)F)cc2)CC1` yielded an IC50 of 670 nM.

`O=S(=O)(c1c(Cl)cccc1Cl)N1CCCCC(c2ccc(C(F)(F)F)cc2)=N1` returned a 50% inhibitory concentration (IC50) of 130 nM.

`O=C(Nc1ccc(N2CCC(Nc3ccccn3)CC2)cc1)c1cnc(Cl)c(Cl)c1` gave an IC50 of 1190 nM.

On to `Oc1ccc(CCNc2nc(NCc3ccccc3-c3ccc(C(F)(F)F)cc3)nc(N3CCCNCC3)n2)cc1`, for which the IC50 came out at 870 nM.

For `Cc1[nH]c(C)c(-c2ccc(Oc3ccccc3)cc2)c(=O)c1Br`, the concentration for half-maximal inhibition (IC50) was 50 nM.

As to `CCc1ccc(N2C(N)=NC(N)=NC2(C)C)cc1`, the half-maximal inhibitory concentration (IC50) is 10 nM.

For the compound `O=[N+]([O-])c1cccc(CNCC2CCN(Cc3ccc(-c4ccccc4)cc3)CC2)c1`, the IC50 came to 250 nM.

`COc1cccc(NC(=O)CSc2nc(-c3ccccc3Cl)ns2)c1`: the IC50 amounted to 810 nM.

`COc1ccc(C2C(C(=O)Nc3ccc(C)cc3Br)c3ccccc3C(=O)N2C)cc1` (centres undefined): the IC50 is 940 nM.

Consider `C[C@@H]1CN(c2ncc(-c3ccc(CNC4Cc5ccccc5C4)cc3)cn2)C[C@H](C)N1`, for which the IC50 is 1160 nM.

Turning to `O=C(NC1CCN(Cc2ccsc2)CC1)c1ccc(-c2cccc(C(F)(F)F)c2)s1`, the 50% inhibitory concentration (IC50) is 1440 nM.

`O=S(=O)(c1cc2ccccc2s1)N(CCC(O)(C(F)(F)F)C(F)(F)F)Cc1cccc(O)c1` came in with an IC50 of 750 nM.

`CCNc1cc(C(=O)N[C@@H](Cc2ccccc2)[C@H](O)CN[C@H](C)C(C)(C)C)cc(N2CCCCS2(=O)=O)c1` came in with an IC50 of 820 nM.

As to `CCc1cc2c(cc1OCCN(C)C)N(C(=O)Nc1ccc(-c3ccncc3)c(Cl)c1)CC2`, the IC50 was found to be 840 nM.

As to `NC(=O)c1ccc(NC(=O)CN(Cc2ccc(Cl)cc2)S(=O)(=O)c2ccccc2)cc1`, the IC50 was determined as 650 nM.

In the case of `COc1cccc(C(=O)Nc2ccc(Oc3ccc(Cl)cc3)cc2)c1`, the concentration for half-maximal inhibition (IC50) stood at 960 nM.

In turn, `COc1ccc(-c2ccc(NC(=O)c3cccc(C#N)c3)cc2)cc1CN1CCNCC1` returned a concentration for half-maximal inhibition (IC50) of 730 nM.

Compound `CC(C)=CCN1CCC(C(=O)Nc2ccc(-c3nc4ccccc4[nH]3)cc2)CC1` registered a half-maximal inhibitory concentration (IC50) of 910 nM.

For the compound `CCCCCCCCCc1c(C)[nH]c2ccccc2c1=O`, the half-inhibitory concentration (IC50) came out at 160 nM.

Compound `COc1ccccc1NC(=O)Nc1cccc(-c2cccc(-c3nc4c(C)cccc4[nH]3)c2)c1` came in with a 50% inhibitory concentration (IC50) of 100 nM.

The compound `CC(=O)c1ccc(N2CCN(C(=O)Nc3ccc(Cl)cc3)CC2)cc1` came in with an IC50 of 980 nM.

Compound `CN1CCC(C(=O)Nc2cccc(-c3ccc(-c4nc5ccc(C(F)(F)F)cc5[nH]4)cc3)c2)CC1` came in with an IC50 of 680 nM. The IC50 values of the last two compounds are within 1.5-fold of each other.

`CCCCOC(=O)c1ccc(NC(=O)Nc2ccc(Cn3ncc(N4CCCNCC4)c(Cl)c3=O)cc2)cc1` gave a concentration for half-maximal inhibition (IC50) of 740 nM.

For `O=c1cc(NCCCN(Cc2ccccc2)Cc2ccccc2)[nH]c2ccccc12`, the 50% inhibitory concentration (IC50) turned out to be 580 nM. This IC50 and that of the compound before are within 1.5-fold of each other.
